From the NIST ThermoML archive (doi:10.1021/acs.jced.5b00941)

Tests used:
[1] = 100 kPa, Liquid, Falling or rolling sphere viscometry
[2] = mn = molality of the nth substance listed, in mol/kg; conditions: 100 kPa, Liquid; for viscosity: Falling or rolling sphere viscometry; for mass density: Vibrating tube method

O [water]
[1]
Conditions	viscosity [mPa·s]
288.15 K	1.145
293.15 K	1.01
298.15 K	0.896
303.15 K	0.801
308.15 K	0.721

[Cl-].[Na+] [sodium chloride] + O
[2]
Conditions	mass density, 288.15 K [kg/m3]	mass density, 293.15 K [kg/m3]	mass density, 298.15 K [kg/m3]	mass density, 303.15 K [kg/m3]	mass density, 308.15 K [kg/m3]	viscosity, 288.15 K [mPa·s]	viscosity, 293.15 K [mPa·s]	viscosity, 298.15 K [mPa·s]	viscosity, 303.15 K [mPa·s]	viscosity, 308.15 K [mPa·s]
m1 = 0.1	1003.32	1002.36	1001.15	999.711	998.058	1.146	1.011	0.892	0.804	0.73
m1 = 0.2	1007.43	1006.42	1005.14	1003.65	1001.98	1.149	1.016	0.901	0.812	0.738
m1 = 0.3	1011.33	1010.27	1008.96	1007.44	1005.73	1.151	1.019	0.91	0.82	0.745
m1 = 0.4	1015.65	1014.53	1013.16	1011.6	1009.85	1.158	1.026	0.917	0.827	0.751
m1 = 0.5	1019.41	1018.24	–	1015.24	1013.48	1.165	1.033	0.925	0.834	0.76

O=C(O[C@@H]1Cc2c(O)cc(O)cc2O[C@@H]1c1cc(O)c(O)c(O)c1)c1cc(O)c(O)c(O)c1 + O
[2]
Conditions	mass density, 288.15 K [kg/m3]	mass density, 293.15 K [kg/m3]	mass density, 298.15 K [kg/m3]	mass density, 303.15 K [kg/m3]	mass density, 308.15 K [kg/m3]	viscosity, 288.15 K [mPa·s]	viscosity, 293.15 K [mPa·s]	viscosity, 298.15 K [mPa·s]	viscosity, 303.15 K [mPa·s]	viscosity, 308.15 K [mPa·s]
m1 = 0.0099	1000.71	999.804	998.637	997.228	995.598	1.148	1.014	0.906	0.815	0.739
m1 = 0.02	1002.36	1001.44	1000.26	998.831	997.195	1.158	1.021	0.911	0.82	0.744
m1 = 0.0298	1003.97	1003.04	1001.83	1000.39	998.752	1.171	1.034	0.92	0.827	0.75
m1 = 0.0399	1005.63	1004.68	1003.47	1002.01	1000.36	1.187	1.049	0.934	0.838	0.759
m1 = 0.0499	1007.26	1006.29	1005.05	1003.6	1001.92	1.203	1.062	0.945	0.849	0.769
m1 = 0.0601	1008.94	1007.93	1006.69	1005.22	1003.53	1.222	1.079	0.959	0.86	0.778

[Cl-].[Li+] [lithium chloride] + O
[2]
Conditions	mass density, 288.15 K [kg/m3]	mass density, 293.15 K [kg/m3]	mass density, 298.15 K [kg/m3]	mass density, 303.15 K [kg/m3]	mass density, 308.15 K [kg/m3]	viscosity, 288.15 K [mPa·s]	viscosity, 293.15 K [mPa·s]	viscosity, 298.15 K [mPa·s]	viscosity, 303.15 K [mPa·s]	viscosity, 308.15 K [mPa·s]
m1 = 0.1	1001.51	1000.58	999.41	998.003	996.382	1.146	1.011	0.898	0.809	0.735
m1 = 0.2	1004	1003.06	1001.87	1000.45	998.848	1.154	1.019	0.909	0.818	0.743
m1 = 0.3	1006.34	1005.37	1004.17	1002.75	1001.13	1.169	1.033	0.921	0.83	0.753
m1 = 0.4	1008.37	1007.4	1006.19	1004.76	1003.15	1.183	1.045	0.932	0.84	0.762
m1 = 0.5	1011.06	1010.07	1008.81	1007.35	1005.79	1.201	1.061	0.948	0.853	0.774

[Cl-].[K+] [potassium chloride] + O
[2]
Conditions	mass density, 288.15 K [kg/m3]	mass density, 293.15 K [kg/m3]	mass density, 298.15 K [kg/m3]	mass density, 303.15 K [kg/m3]	mass density, 308.15 K [kg/m3]	viscosity, 288.15 K [mPa·s]	viscosity, 293.15 K [mPa·s]	viscosity, 298.15 K [mPa·s]	viscosity, 303.15 K [mPa·s]	viscosity, 308.15 K [mPa·s]
m1 = 0.1	1003.85	1002.92	1001.71	1000.28	998.631	1.145	1.01	0.896	0.801	0.722
m1 = 0.2	1008.58	1007.58	1006.33	1004.85	1003.19	1.145	1.01	0.896	0.801	0.723
m1 = 0.3	1013.16	1012.13	1010.84	1009.34	1007.64	1.145	1.011	0.897	0.801	0.726
m1 = 0.4	1017.86	1016.77	1015.43	1013.89	1012.18	1.147	1.013	0.897	0.801	0.73
m1 = 0.5	1022.32	1021.2	1019.84	1018.27	1016.52	1.152	1.027	0.899	0.802	0.73
